Patent publication US11795460B2, “Compositions and methods for TTR gene editing and treating ATTR amyloidosis” (Intellia Therapeutics, Inc., priority 2017, dated 2023)

Legend:
TTR [1] = test: TTR editing in primary cyno hepatocytes electroporated with Spy Cas9 protein and dgRNAs (Tables 10, 11); type: cell-based, cynomolgus monkey; details: Table 10; primary cyno hepatocytes electroporated with Spy Cas9 protein (RNP) and dgRNAs
Summary of the method: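 Editing efficiency is the fraction of NGS reads carrying insertions, deletions or substitutions at the TTR target, measured on MiSeq amplicons from DNA harvested 24, 48 or 72 h post-delivery. Cas9–dgRNA ribonucleoprotein was nucleofected (P3 buffer, EX-147) into primary human or cyno hepatocytes.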

TTR [2] = test: TTR editing in primary human hepatocytes transfected with Spy Cas9 protein (RNP) loaded with dgRNAs (Table 8); type: cell-based; details: dgRNA transfected with Spy Cas9 protein (RNP)
Summary of the method: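 Primary human hepatocytes were lipofected (RNAiMAX) with RNP of Spy Cas9 (10 nM) plus pre-annealed crRNA (10 nM) and trRNA (10 nM) and harvested 24, 48 or 72 h later. Target-site amplicons were sequenced on Illumina MiSeq and aligned to hg38; percent editing = reads with indels or substitutions over total reads.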

CAUUGAUGGCAGGACUGCCU (tested as dual guide RNA, chemistry not given here) [CR003347]
Avg % Deletion (TTR [1]): 0.25%
Avg % Edit (TTR [1]): 72.41%
Avg % Insert (TTR [1]): 72.15%
Avg % Deletion (TTR [2]): 0.24%
Avg % Edit (TTR [2]): 66.35%
Avg % Insert (TTR [2]): 66.11%

CCAGUCCAGCAAGGCAGAGG (tested as dual guide RNA, chemistry not given here) [CR003337]
Avg % Deletion (TTR [1]): 0.84%
Avg % Edit (TTR [1]): 24.94%
Avg % Insert (TTR [1]): 24.10%
Avg % Deletion (TTR [2]): 1.88%
Avg % Edit (TTR [2]): 49.43%
Avg % Insert (TTR [2]): 47.54%

CCCCUACUCCUAUUCCACCA (tested as dual guide RNA, chemistry not given here) [CR003385]
Avg % Deletion (TTR [1]): 4.12%
Avg % Edit (TTR [1]): 30.96%
Avg % Insert (TTR [1]): 26.84%
Avg % Deletion (TTR [2]): 3.00%
Avg % Edit (TTR [2]): 41.15%
Avg % Insert (TTR [2]): 38.15%

CCGUGGUGGAAUAGGAGUAG (tested as dual guide RNA, chemistry not given here) [CR003386]
Avg % Deletion (TTR [1]): 2.03%
Avg % Edit (TTR [1]): 5.54%
Avg % Insert (TTR [1]): 3.51%
Avg % Deletion (TTR [2]): 0.25%
Avg % Edit (TTR [2]): 3.22%
Avg % Insert (TTR [2]): 2.97%

CCUCCUCUGCCUUGCUGGAC (tested as dual guide RNA, chemistry not given here) [CR003336]
Avg % Deletion (TTR [1]): 0.07%
Avg % Edit (TTR [1]): 8.18%
Avg % Insert (TTR [1]): 8.10%
Avg % Deletion (TTR [2]): 0.58%
Avg % Edit (TTR [2]): 30.70%
Avg % Insert (TTR [2]): 30.11%

CCUCUGCAUGCUCAUGGAAU (tested as dual guide RNA, chemistry not given here) [CR003370]
Avg % Deletion (TTR [1]): 0.12%
Avg % Edit (TTR [1]): 2.52%
Avg % Insert (TTR [1]): 2.40%
Avg % Deletion (TTR [2]): 1.26%
Avg % Edit (TTR [2]): 20.06%
Avg % Insert (TTR [2]): 18.80%

CUCUGCAUGCUCAUGGAAUG (tested as dual guide RNA, chemistry not given here) [CR003369]
Avg % Deletion (TTR [1]): 0.25%
Avg % Edit (TTR [1]): 1.53%
Avg % Insert (TTR [1]): 1.28%
Avg % Deletion (TTR [2]): 1.31%
Avg % Edit (TTR [2]): 12.98%
Avg % Insert (TTR [2]): 11.67%

CUGAGGAGGAAUUUGUAGAA (tested as dual guide RNA, chemistry not given here) [CR003364]
Avg % Deletion (TTR [1]): 5.35%
Avg % Edit (TTR [1]): 19.62%
Avg % Insert (TTR [1]): 14.27%
Avg % Deletion (TTR [2]): 11.36%
Avg % Edit (TTR [2]): 35.29%
Avg % Insert (TTR [2]): 23.93%

CUGGUAUUUGUGUCUGAGGC (tested as dual guide RNA, chemistry not given here) [CR003341]
Avg % Deletion (TTR [1]): 0.77%
Avg % Edit (TTR [1]): 8.43%
Avg % Insert (TTR [1]): 7.66%
Avg % Deletion (TTR [2]): 5.02%
Avg % Edit (TTR [2]): 19.66%
Avg % Insert (TTR [2]): 14.64%

GAAAGGCUGCUGAUGACACC (tested as dual guide RNA, chemistry not given here) [CR003352]
Avg % Deletion (TTR [1]): 0.09%
Avg % Edit (TTR [1]): 1.25%
Avg % Insert (TTR [1]): 1.16%
Avg % Deletion (TTR [2]): 3.21%
Avg % Edit (TTR [2]): 30.48%
Avg % Insert (TTR [2]): 27.27%

GACGACAGCCGUGGUGGAAU (tested as dual guide RNA, chemistry not given here) [CR003388]
Avg % Deletion (TTR [1]): 0.22%
Avg % Edit (TTR [1]): 6.81%
Avg % Insert (TTR [1]): 6.59%
Avg % Deletion (TTR [2]): 1.05%
Avg % Edit (TTR [2]): 5.43%
Avg % Insert (TTR [2]): 4.38%

GCAUGGGCUCACAACUGAGG (tested as dual guide RNA, chemistry not given here) [CR003362]
Avg % Deletion (TTR [1]): 0.22%
Avg % Edit (TTR [1]): 4.59%
Avg % Insert (TTR [1]): 4.36%
Avg % Deletion (TTR [2]): 0.56%
Avg % Edit (TTR [2]): 11.65%
Avg % Insert (TTR [2]): 11.10%

GCCGUGGUGGAAUAGGAGUA (tested as dual guide RNA, chemistry not given here) [CR003387]
Avg % Deletion (TTR [1]): 0.17%
Avg % Edit (TTR [1]): 4.72%
Avg % Insert (TTR [1]): 4.55%
Avg % Deletion (TTR [2]): 0.11%
Avg % Edit (TTR [2]): 1.79%
Avg % Insert (TTR [2]): 1.68%

GCUGCAUGGGCUCACAACUG (tested as dual guide RNA, chemistry not given here) [CR003361]
Avg % Deletion (TTR [1]): 0.08%
Avg % Edit (TTR [1]): 4.53%
Avg % Insert (TTR [1]): 4.46%
Avg % Deletion (TTR [2]): 0.56%
Avg % Edit (TTR [2]): 13.08%
Avg % Insert (TTR [2]): 12.52%

GGAGUAGGGGCUCAGCAGGG (tested as dual guide RNA, chemistry not given here) [CR003382]
Avg % Deletion (TTR [1]): 2.33%
Avg % Edit (TTR [1]): 10.86%
Avg % Insert (TTR [1]): 8.54%
Avg % Deletion (TTR [2]): 0.15%
Avg % Edit (TTR [2]): 2.44%
Avg % Insert (TTR [2]): 2.28%

GGCUGUCGUCACCAAUCCCA (tested as dual guide RNA, chemistry not given here) [CR003391]
Avg % Deletion (TTR [1]): 0.71%
Avg % Edit (TTR [1]): 36.44%
Avg % Insert (TTR [1]): 35.73%
Avg % Deletion (TTR [2]): 0.26%
Avg % Edit (TTR [2]): 34.72%
Avg % Insert (TTR [2]): 34.46%

GGGAUUGGUGACGACAGCCG (tested as dual guide RNA, chemistry not given here) [CR003390]
Avg % Deletion (TTR [1]): 0.39%
Avg % Edit (TTR [1]): 16.87%
Avg % Insert (TTR [1]): 16.49%
Avg % Deletion (TTR [2]): 0.24%
Avg % Edit (TTR [2]): 16.09%
Avg % Insert (TTR [2]): 15.85%

GUCACAGAAACACUCACCGU (tested as dual guide RNA, chemistry not given here) [CR005301]
Avg % Deletion (TTR [1]): 0.42%
Avg % Edit (TTR [1]): 46.76%
Avg % Insert (TTR [1]): 46.34%
Avg % Deletion (TTR [2]): 1.84%
Avg % Edit (TTR [2]): 31.37%
Avg % Insert (TTR [2]): 29.53%

GUGAGUCUGGAGAGCUGCAU (tested as dual guide RNA, chemistry not given here) [CR003360]
Avg % Deletion (TTR [1]): 0.42%
Avg % Edit (TTR [1]): 29.47%
Avg % Insert (TTR [1]): 29.05%
Avg % Deletion (TTR [2]): 1.19%
Avg % Edit (TTR [2]): 31.47%
Avg % Insert (TTR [2]): 30.27%

UACUCACCUCUGCAUGCUCA (tested as dual guide RNA, chemistry not given here) [CR003372]
Avg % Deletion (TTR [1]): 0.32%
Avg % Edit (TTR [1]): 2.15%
Avg % Insert (TTR [1]): 1.83%
Avg % Deletion (TTR [2]): 1.81%
Avg % Edit (TTR [2]): 17.56%
Avg % Insert (TTR [2]): 15.74%

UCUAGAACUUUGACCAUCAG (tested as dual guide RNA, chemistry not given here) [CR003345]
Avg % Deletion (TTR [1]): 22.19%
Avg % Edit (TTR [1]): 52.92%
Avg % Insert (TTR [1]): 30.74%
Avg % Deletion (TTR [2]): 7.91%
Avg % Edit (TTR [2]): 28.90%
Avg % Insert (TTR [2]): 21.00%

UGAAUCCAAGUGUCCUCUGA (tested as dual guide RNA, chemistry not given here) [CR005303]
Avg % Deletion (TTR [1]): 0.56%
Avg % Edit (TTR [1]): 59.28%
Avg % Insert (TTR [1]): 58.72%
Avg % Deletion (TTR [2]): 0.39%
Avg % Edit (TTR [2]): 36.45%
Avg % Insert (TTR [2]): 36.06%

UGGACUGGUAUUUGUGUCUG (tested as dual guide RNA, chemistry not given here) [CR003340]
Avg % Deletion (TTR [1]): 4.80%
Avg % Edit (TTR [1]): 12.53%
Avg % Insert (TTR [1]): 7.72%
Avg % Deletion (TTR [2]): 4.50%
Avg % Edit (TTR [2]): 10.44%
Avg % Insert (TTR [2]): 5.94%

UGUAGAAGGGAUAUACAAAG (tested as dual guide RNA, chemistry not given here) [CR003365]
Avg % Deletion (TTR [1]): 0.97%
Avg % Edit (TTR [1]): 10.31%
Avg % Insert (TTR [1]): 9.33%
Avg % Deletion (TTR [2]): 7.54%
Avg % Edit (TTR [2]): 47.78%
Avg % Insert (TTR [2]): 40.24%

UUUGACCAUCAGAGGACACU (tested as dual guide RNA, chemistry not given here) [CR003344]
Avg % Deletion (TTR [1]): 1.91%
Avg % Edit (TTR [1]): 35.72%
Avg % Insert (TTR [1]): 33.81%
Avg % Deletion (TTR [2]): 4.48%
Avg % Edit (TTR [2]): 35.45%
Avg % Insert (TTR [2]): 30.97%
